Patent publication US20200179415A1, “HIGHLY ACTIVE DRUG COMBINATION FOR TREATMENT OF HEPATITIS C VIRUS” (Atea Pharmaceuticals, Inc., priority 2018, published 2020)
Structures can show the parent of a compound that is named as a salt.

Tests used:
HCV GT1 or HCV GT3 = details: CPA cirrhosis, QD for seven days; cited from earlier work
HCV GT3 = details: non-cirrhotic patients, 600 mg QD, seven days; cited from earlier work
HCV GT1 = details: non-cirrhotic patients, 600 mg QD, seven days; cited from earlier work
HCV GT1b replicon = test: microbe, parasite or virus in culture; assay type: cell-based; details: Hepatitis C virus, Huh-7, 72 h, stable replicon in Huh7 cells, 3 days, read-out: Individual EC50
Method: (§1) Huh7 cells were maintained in DMEM supplemented with 10% FBS, 1% NEAA, 1% L-Glutamine and 1% Penicillin-Streptomycin. The stable HCV GT1a and 1b replicon cells were generated by transfection of Huh7 cells with in vitro transcribed HCV replicon RNA transcripts from replicon DNA constructs and were selected with 250 μg/ml of G418. The GT1b/3a NS5B chimeric replicons were constructed with the GT1b replicon as a backbone. GT1b/3a NS5B replicon RNAs were in vitro transcribed using the replicon plasmid DNAs and used to transiently transfect Huh7 cells by electroporation.
(§2) The final concentration of DMSO in the cell culture medium was 0.5%. Compounds were individually tested for their inhibitory activity in stably-transfected GT1a and GT1b replicons and in transiently-transfected GT1b/3a NS5B chimeric replicons in duplicate at 9 concentrations with a series of 4-fold dilutions starting at 10,000 nM. Replicon cells were seeded (8,000 cells/well for GT1a and 1b; 10,000 cells/well for GT1b/3a NS5B) in 96-well plates containing serially diluted compounds and cultured at 37° C. and 5% CO2 for 3 days. CellTiter-Fluor was used to detect the fluorescence signal and the raw data (RFU) was used for calculating cell viability using the equation below: […]
(§3) where CPD is a signal from a well containing a test compound, ZPE is the average of signals from DMSO control wells and HPE is the average of signals from medium control wells.
(§4) The data were analyzed using CompuSyn software (ComboSyn, Inc., Paramus, N.J.) to obtain the concentrations of the individual compounds required to achieve 50% cytotoxicity (CC50) and 50% (EC50) and 90% (EC90) antiviral efficacy. […]
(§5) In Example 6, Huh7 cells were transiently transfected with replicon RNA by electroporation and seeded at a density of 10,000 cells/well in 96-well plates. HCV GT1a and GT1b replicons stable cells were seeded at a density of 8,000 cells/well in 96-well plates. […]

[1] = system: GT1b_3a-NS5B chimeric HCV replicon; test: microbe, parasite or virus in culture; assay type: cell-based; details: Hepatitis C virus, Huh-7, 72 h, read-out: Individual EC50
Method: as §1, §2, §3, §4, §5

HCV GT1a replicon = test: microbe, parasite or virus in culture; assay type: cell-based; details: Hepatitis C virus, Huh-7, 72 h, stable replicon in Huh7 cells, 3 days, read-out: Individual EC50
Method: as §1, §2, §3, §4, §5

[2] = Stability of Compound 2-A in stability chambers; assay type: physicochemical
Method: The stability of Compound 2-A was measured under three different conditions: 1) open container; 2) PE/ALU bag where the PE bag is closed with clips and the ALU bag is sealed by thermos-sealing; and 3) PE/ALU bag with desiccant where the PE bag is closed with plastic clip, the ALU bag is sealed by the thermos-sealing, and 10 g of silica gel is placed between the bags. The open container conditions were conducted with two different batches of Compound 2-A. The results of the stability studies are shown in Table 5A, Table 5B, Table 6, and Table 7.

[3] = Hygroscopicity in climatic cabinet; assay type: physicochemical
Method: Compound 2-A was characterized by ^1HNMR, ^13CNMR, FI-IR, and mass spectrum in addition to XRPD (FIG. 1A) and differential scanning calorimetry (DSC) (FIG. 1B). The hygroscopicity was measured by placing a sample in a climatic cabinet set at 25±1° C./80±2% RH for 24 hours. The water content was increased from 3.3% to 9.4%.

[4] = 25° C./60% RH and 40° C./75% RH
[5] = Batch No. 1, open container, 25° C./60% RH, 7 days
[6] = Batch No. 1, open container, 25° C./60% RH, 14 days
[7] = Batch No. 1, open container, 25° C./60% RH, 28 days
[8] = Batch No. 1, open container, 30° C./65% RH, 7 days
[9] = Batch No. 1, open container, 30° C./65% RH, 14 days
[10] = Batch No. 1, open container, 30° C./65% RH, 28 days
[11] = Batch No. 1, open container, 40° C./75% RH, 7 days
[12] = Batch No. 1, open container, 40° C./75% RH, 14 days
[13] = Batch No. 1, open container, 40° C./75% RH, 28 days
[14] = Batch No. 1, open container, Initial
[15] = Batch No. 2, PE/ALU bag, 25° C./60% RH, 7 days
[16] = Batch No. 2, PE/ALU bag, 25° C./60% RH, 16 days
[17] = Batch No. 2, PE/ALU bag, 40° C./75% RH, 7 days
[18] = Batch No. 2, PE/ALU bag, 40° C./75% RH, 16 days
[19] = Batch No. 2, PE/ALU bag, Initial
[20] = Batch No. 2, PE/ALU with desiccant, 25° C./60% RH, 7 days
[21] = Batch No. 2, PE/ALU with desiccant, 25° C./60% RH, 16 days
[22] = Batch No. 2, PE/ALU with desiccant, 40° C./75% RH, 7 days
[23] = Batch No. 2, PE/ALU with desiccant, 40° C./75% RH, 16 days
[24] = Batch No. 2, PE/ALU with desiccant, Initial
[25] = Batch No. 2, open container, 25° C./60% RH, 7 days
[26] = Batch No. 2, open container, 25° C./60% RH, 16 days
[27] = Batch No. 2, open container, 30° C./65% RH, 7 days
[28] = Batch No. 2, open container, 30° C./65% RH, 16 days
[29] = Batch No. 2, open container, 40° C./75% RH, 7 days
[30] = Batch No. 2, open container, 40° C./75% RH, 16 days
[31] = Batch No. 2, open container, Initial

CNc1nc(N)nc2c1ncn2[C@@H]1O[C@H](CO[P@@](=O)(N[C@@H](C)C(=O)OC(C)C)Oc2ccccc2)[C@@H](O)[C@@]1(C)F [Compound 1-A, hemi-sulfate salt of isopropyl((S)-(((2R,3R,4R,5R)-5-(2-amino-6-(methylamino)-9H-purin-9-yl)-4-fluoro-3-hydroxy-4-methyltetrahydrofuran-2-yl)methoxy)(phenoxy)phosphoryl)-L-alaninate]
mean maximum HCV RNA reduction (HCV GT1 or HCV GT3): 4.4 log10 IU/mL | mean maximum HCV RNA reduction (HCV GT3): 4.6 log10 IU/mL | mean maximum HCV RNA reduction (HCV GT1): 4.4 log10 IU/mL | EC50 (HCV GT1b replicon): 2690 pM | EC50 [1]: 1680 pM | EC50 (HCV GT1a replicon): 2830 pM

COC(=O)N[C@H](C(=O)N1CCC[C@H]1c1nc(-c2ccc(-c3ccc(-c4c[nH]c([C@@H]5CCCN5C(=O)[C@@H](NC(=O)OC)C(C)C)n4)c4c3OCO4)cc2)c[nH]1)C(C)C [Compound 2, methyl N-[(2S)-1-[(2S)-2-[5-[4-[7-[2-[(2S)-1-[(2 S)-2-(methoxycarbonylamino)-3-methylbutanoyl]pyrrolidin-2-yl]-1H-imidazol-5-yl]-1,3-benzodioxol-4-yl]phenyl]-1H-imidazol-2-yl]pyrrolidin-1-yl]-3-methyl-1-oxobutan-2-yl]carbamate]
EC50 (HCV GT1b replicon): 14 pM | EC50 [1]: 2.9 pM | EC50 (HCV GT1a replicon): 30 pM

COC(=O)N[C@H](C(=O)N1CCC[C@H]1c1nc(-c2ccc(-c3ccc(-c4c[nH]c([C@@H]5CCCN5C(=O)[C@@H](NC(=O)OC)C(C)C)n4)c4c3OCO4)cc2)c[nH]1)C(C)C [Compound 2-A]
purity change [2, 4]: not changed | water content change [2, 4]: slowly increased | Appearance [2, 5]: Pale-yellow solid | Purity (HPLC) [2, 5]: 98.45% | Water (KF) [2, 5]: 6.14% | XRPD [2, 5]: Consistent | Appearance [2, 6]: Pale-yellow solid | Purity (HPLC) [2, 6]: 98.61% | Water (KF) [2, 6]: 6.28% | Appearance [2, 7]: Pale-yellow solid | Purity (HPLC) [2, 7]: 98.58% | Water (KF) [2, 7]: 5.95% | Appearance [2, 8]: Pale-yellow solid | Purity (HPLC) [2, 8]: 98.40% | Water (KF) [2, 8]: 6.73% | XRPD [2, 8]: Consistent | Appearance [2, 9]: Pale-yellow solid | Purity (HPLC) [2, 9]: 98.47% | Water (KF) [2, 9]: 6.80% | Appearance [2, 10]: Pale-yellow solid | Purity (HPLC) [2, 10]: 98.59% | Water (KF) [2, 10]: 6.49% | Appearance [2, 11]: Pale-yellow solid | Purity (HPLC) [2, 11]: 98.45% | Water (KF) [2, 11]: 7.13% | XRPD [2, 11]: Consistent | Appearance [2, 12]: Pale-yellow solid | Purity (HPLC) [2, 12]: 98.51% | Water (KF) [2, 12]: 7.67% | Appearance [2, 13]: Pale-yellow solid | Purity (HPLC) [2, 13]: 98.53% | Water (KF) [2, 13]: 6.96% | Appearance [2, 14]: Pale-yellow solid | Purity (HPLC) [2, 14]: 98.39% | Water (KF) [2, 14]: 3.11% | XRPD [2, 14]: Crystalline | Appearance [2, 15]: White powder | Purity (HPLC) [2, 15]: 99.36% | Water (KF) [2, 15]: 5.18% | Appearance [2, 16]: White powder | Purity (HPLC) [2, 16]: 99.41% | Water (KF) [2, 16]: 5.56% | Appearance [2, 17]: White powder | Purity (HPLC) [2, 17]: 99.37% | Water (KF) [2, 17]: 5.42% | Appearance [2, 18]: White powder | Purity (HPLC) [2, 18]: 99.42% | Water (KF) [2, 18]: 5.91% | Appearance [2, 19]: White powder | Purity (HPLC) [2, 19]: 99.39% | Water (KF) [2, 19]: 4.48% | Appearance [2, 20]: White powder | Purity (HPLC) [2, 20]: 99.38% | Water (KF) [2, 20]: 5.46% | Appearance [2, 21]: White powder | Purity (HPLC) [2, 21]: 99.41% | Water (KF) [2, 21]: 5.83% | Appearance [2, 22]: White powder | Purity (HPLC) [2, 22]: 99.37% | Water (KF) [2, 22]: 5.51% | Appearance [2, 23]: White powder | Purity (HPLC) [2, 23]: 99.42% | Water (KF) [2, 23]: 6.90% | Appearance [2, 24]: White powder | Purity (HPLC) [2, 24]: 99.39% | Water (KF) [2, 24]: 4.48% | Appearance [2, 25]: White powder | Purity (HPLC) [2, 25]: 99.37% | Water (KF) [2, 25]: 6.01% | Appearance [2, 26]: White powder | Purity (HPLC) [2, 26]: 99.41% | Water (KF) [2, 26]: 7.69% | Appearance [2, 27]: White powder | Purity (HPLC) [2, 27]: 99.38% | Water (KF) [2, 27]: 7.50% | Appearance [2, 28]: White powder | Purity (HPLC) [2, 28]: 99.41% | Water (KF) [2, 28]: 6.98% | Appearance [2, 29]: White powder | Purity (HPLC) [2, 29]: 99.38% | Water (KF) [2, 29]: 7.96% | Appearance [2, 30]: White powder | Purity (HPLC) [2, 30]: 99.42% | Water (KF) [2, 30]: 7.03% | Appearance [2, 31]: White powder | Purity (HPLC) [2, 31]: 99.39% | Water (KF) [2, 31]: 4.48% | water content ([3]; after 24 hours at 25±1° C./80±2% RH): 9.4% | water content ([3]; before storage): 3.3%
